This note sets out measurements from patent publication US20230025510A1, “BIARYL ETHER-TYPE QUINAZOLINE DERIVATIVES” (DAIICHI SANKYO COMPANY, LIMITED, priority 2018, published 2023).

Common to all, as to assay type: cell-based
One assay relates to Ba/F3-Mock cells. As to the kind of experiment: Cell proliferation suppression test (CellTiter-Glo, GI50), Ba/F3-Mock. The note with it: Mus musculus, BaF3, 72 h, 5 ng/mL IL-3, 3 days, N=4. The method in brief: (§1)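 Ba/F3 lines in RPMI 1640/10% FBS without puromycin; IL-3 5 ng/mL added for Mock, EGF 100 ng/mL for EGFR WT. Cells treated 3 days at 37 °C, 5% CO2; ATP measured by CellTiter-Glo 2.0 on day 0 and day 3 (N=4). GI50 is the concentration inhibiting 50% of day 0–3 proliferation.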

For assay [1], the system named is Ba/F3-EGFR ins. ASV cells. As to the kind of experiment: Cell proliferation suppression test (CellTiter-Glo, GI50), Ba/F3-EGFR ins. ASV. The note with it: Mus musculus, 72 h, 3 days, N=4. The method in brief: as §1
In general terms: ATP-based viability assays read luminescence as a measure of living cells.

A further assay deals with Ba/F3-EGFR WT cells. As to the kind of experiment: Cell proliferation suppression test (CellTiter-Glo, GI50), Ba/F3-EGFR WT. The settings on record: Mus musculus, 72 h, 100 ng/mL EGF, 3 days, N=4. In outline:
as §1

Assay [2] deals with Ba/F3-EGFR ins. SVD cells. As to the kind of experiment: Cell proliferation suppression test (CellTiter-Glo, GI50), Ba/F3-EGFR ins. SVD. The note with it: Mus musculus, 72 h, 3 days, N=4. In outline:
as §1

Molecules are shown by their SMILES.

The term GI50 denotes the concentration giving 50% growth inhibition. In the case of `COc1cc2ncnc(Nc3ccc(Oc4cccc(-c5nnc(C(C)C)o5)c4)cc3F)c2cc1NC(=O)/C=C/CN(C)C` [Example 43, (2E)-4-(Dimethylamino)-N-[4-(2-fluoro-4-{3-[5-(propan-2-yl)-1,3,4-oxadiazol-2-yl]phenoxy}anilino)-7-methoxyquinazolin-6-yl]but-2-enamide], the GI50 was 806 nM with Ba/F3-Mock cells, 5.5 nM in assay [1], 69.8 nM in the assay with Ba/F3-EGFR WT cells and 14.1 nM in assay [2].

On to `COc1cc2ncnc(Nc3ccc(Oc4cccc(-c5nnc(C)s5)c4)cc3F)c2cc1NC(=O)/C=C/CN(C)C` [Example 44, (2E)-4-(Dimethylamino)-N-(4-{2-fluoro-4-[3-(5-methyl-1,3,4-thiadiazol-2-yl)phenoxy]anilino}-7-methoxyquinazolin-6-yl)but-2-enamide], for which the GI50 in the assay with Ba/F3-Mock cells was 724 nM; in assay [1], 15.5 nM; with Ba/F3-EGFR WT cells, 167 nM; in assay [2], 52.2 nM.

For the compound `COc1cc2ncnc(Nc3ccc(Oc4nn(CC(=O)NC(C)(C)C)cc4F)cc3Cl)c2cc1NC(=O)/C=C/CN(C)C` [Example 45, (2E)-N-{4-[4-({1-[2-(tert-Butylamino)-2-oxoethyl]-4-fluoro-1H-pyrazol-3-yl}oxy)-2-chloroanilino]-7-methoxyquinazolin-6-yl}-4-(dimethylamino)but-2-enamide], the 50% growth inhibitory concentration (GI50) was 2840 nM in the assay on Ba/F3-Mock cells, 10 nM in assay [1], 412 nM in the assay with Ba/F3-EGFR WT cells and 11.6 nM in assay [2].

In the case of `COc1cc2ncnc(Nc3ccc(Oc4nn(CC(=O)NC(C)(C)C)cc4F)cc3F)c2cc1NC(=O)/C=C/CN(C)C` [Example 46, (2E)-N-{4-[4-({1-[2-(tert-Butylamino)-2-oxoethyl]-4-fluoro-1H-pyrazol-3-yl}oxy)-2-fluoroanilino]-7-methoxyquinazolin-6-yl}-4-(dimethylamino)but-2-enamide], the 50% growth inhibitory concentration (GI50) in the assay on Ba/F3-Mock cells stood at 3090 nM; in assay [1], 6.5 nM; with Ba/F3-EGFR WT cells it was 261 nM; in assay [2], 4.7 nM.

Turning to `COc1cc2ncnc(Nc3ccc(Oc4nc(C(=O)NC(C)(C)C)cs4)cc3F)c2cc1NC(=O)/C=C/CN(C)C` [Example 47, N-tert-Butyl-2-{4-[(6-{[(2E)-4-(dimethylamino)but-2-enoyl]amino}-7-methoxyquinazolin-4-yl)amino]-3-fluorophenoxy}-1,3-thiazole-4-carboxamide], the GI50 in the assay on Ba/F3-Mock cells turned out to be 816 nM; in assay [1], 16.4 nM; with Ba/F3-EGFR WT cells, 145 nM; in assay [2] it was 73.1 nM.

With `COc1cc2ncnc(Nc3ccc(Oc4nn(CC(=O)NC(C)(C)CF)cc4F)cc3Cl)c2cc1NC(=O)/C=C/CN(C)C` [Example 48, (2E)-N-(4-{2-Chloro-4-[(4-fluoro-1-{2-[(1-fluoro-2-methylpropan-2-yl)amino]-2-oxoethyl}-1H-pyrazol-3-yl)oxy]anilino}-7-methoxyquinazolin-6-yl)-4-(dimethylamino) but-2-enamide], the GI50 in the assay with Ba/F3-Mock cells stood at 3170 nM; in assay [1], 8.1 nM; with Ba/F3-EGFR WT cells, 638 nM; in assay [2], 4.9 nM.

For the compound `COc1cc2ncnc(Nc3ccc(Oc4cccc(CC(=O)NC(C)(C)C)c4)cc3F)c2cc1NC(=O)/C=C/CN1CCOCC1` [Example 49, (2E)-N-[4-(4-{3-[2-(tert-Butylamino)-2-oxoethyl]phenoxy}-2-fluoroanilino)-7-methoxyquinazolin-6-yl]-4-(morpholin-4-yl)but-2-enamide], the 50% growth inhibitory concentration (GI50) was above 10000 nM with Ba/F3-Mock cells, 20.7 nM in assay [1], 732 nM in the assay on Ba/F3-EGFR WT cells and 21.1 nM in assay [2].

Consider `COc1cc2ncnc(Nc3ccc(Oc4cccc(-c5nnc(C)o5)c4)cc3F)c2cc1NC(=O)/C=C/CN1CCCC1` [Example 50, (2E)-N-(4-{2-Fluoro-4-[3-(5-methyl-1,3,4-oxadiazol-2-yl)phenoxy]anilino}-7-methoxyquinazolin-6-yl)-4-(pyrrolidin-1-yl)but-2-enamide], for which the 50% growth inhibitory concentration (GI50) amounted to 750 nM with Ba/F3-Mock cells, 10.9 nM in assay [1], 240 nM with Ba/F3-EGFR WT cells and 62.2 nM in assay [2].

Take `CCOc1cc2ncnc(Nc3ccc(Oc4cccc(-c5nnc(C6CC6)o5)c4)cc3F)c2cc1NC(=O)/C=C/CN(C)C` [Example 51, (2E)-N-(4-{4-[3-(5-Cyclopropyl-1,3,4-oxadiazol-2-yl)phenoxy]-2-fluoroanilino}-7-ethoxyquinazolin-6-yl)-4-(dimethylamino)but-2-enamide]: the GI50 in the assay on Ba/F3-Mock cells was found to be 806 nM; in assay [1], 11.8 nM; with Ba/F3-EGFR WT cells it was 104 nM; in assay [2] it was 20.5 nM.

`CCOc1cc2ncnc(Nc3ccc(Oc4cccc(-c5nnc(C)o5)c4)cc3F)c2cc1NC(=O)/C=C/CN[C@H]1CCOC1` [Example 52, (2E)-N-(7-Ethoxy-4-{2-fluoro-4-[3-(5-methyl-1,3,4-oxadiazol-2-yl)phenoxy]anilino}quinazolin-6-yl)-4-[(3S)-tetrahydrofuran-3-ylamino]but-2-enamide]: the GI50 with Ba/F3-Mock cells came to 2840 nM; in assay [1], 11.9 nM; in the assay on Ba/F3-EGFR WT cells it was 245 nM; in assay [2], 19.8 nM.

Consider `CCOc1cc2ncnc(Nc3ccc(Oc4cccc(-c5nnc(C)o5)c4)cc3F)c2cc1NC(=O)/C=C/CN[C@@H]1CCOC1` [Example 53, (2E)-N-(7-Ethoxy-4-{2-fluoro-4-[3-(5-methyl-1,3,4-oxadiazol-2-yl)phenoxy]anilino}quinazolin-6-yl)-4-[(3R)-tetrahydrofuran-3-ylamino]but-2-enamide], for which the concentration for 50% growth inhibition (GI50) in the assay on Ba/F3-Mock cells stood at 2950 nM; in assay [1], 11 nM; in the assay with Ba/F3-EGFR WT cells, 229 nM; in assay [2], 16.7 nM.

In the case of `COc1cc2ncnc(Nc3ccc(Oc4nn(CC(=O)NC(C)(C)C)cc4F)cc3Cl)c2cc1NC(=O)/C=C/CN1CCOCC1` [Example 54, (2E)-N-{4-[4-({1-[2-(tert-Butylamino)-2-oxoethyl]-4-fluoro-1H-pyrazol-3-yl}oxy)-2-chloroanilino]-7-methoxyquinazolin-6-yl}-4-(morpholin-4-yl)but-2-enamide], the 50% growth inhibitory concentration (GI50) with Ba/F3-Mock cells was above 10000 nM; in assay [1] it was 33.4 nM; in the assay with Ba/F3-EGFR WT cells, 2890 nM; in assay [2] it was 50.6 nM.

As to `COc1cc2ncnc(Nc3ccc(Oc4nn(CC(=O)NC(C)(C)C)cc4F)cc3Cl)c2cc1NC(=O)/C=C/CN1CC[C@@H](F)C1` [Example 56, (2E)-N-{4-[4-({1-[2-(tert-Butylamino)-2-oxoethyl]-4-fluoro-1H-pyrazol-3-yl}oxy)-2-chloroanilino]-7-methoxyquinazolin-6-yl}-4-[(3R)-3-fluoropyrrolidin-1-yl]but-2-enamide], the GI50 came to 4680 nM in the assay with Ba/F3-Mock cells, 8.5 nM in assay [1], 635 nM in the assay on Ba/F3-EGFR WT cells and 4.6 nM in assay [2].

For the compound `COc1cc2ncnc(Nc3ccc(Oc4nn(CC(=O)NC(C)(C)C)cc4F)cc3Cl)c2cc1NC(=O)/C=C/CN1CC[C@H](F)C1` [Example 57, (2E)-N-{4-[4-({1-[2-(tert-Butylamino)-2-oxoethyl]-4-fluoro-1H-pyrazol-3-yl}oxy)-2-chloroanilino]-7-methoxyquinazolin-6-yl}-4-[(3S)-3-fluoropyrrolidin-1-yl]but-2-enamide], the GI50 is 5090 nM with Ba/F3-Mock cells, 8.5 nM in assay [1], 369 nM with Ba/F3-EGFR WT cells and 4.1 nM in assay [2].

As for `COc1cc2ncnc(Nc3ccc(Oc4nn(CC(=O)NC(C)(C)C)cc4F)cc3F)c2cc1NC(=O)/C=C/CN1CC(F)C1` [Example 59, (2E)-N-{4-[4-({1-[2-(tert-Butylamino)-2-oxoethyl]-4-fluoro-1H-pyrazol-3-yl}oxy)-2-fluoroanilino]-7-methoxyquinazolin-6-yl}-4-(3-fluoroazetidin-1-yl)but-2-enamide], the GI50 is above 10000 nM in the assay with Ba/F3-Mock cells, 11.9 nM in assay [1], 468 nM in the assay with Ba/F3-EGFR WT cells and 7.4 nM in assay [2].

As to `COc1cc2ncnc(Nc3ccc(Oc4nn(CC(=O)NC(C)(C)C)cc4F)cc3F)c2cc1NC(=O)/C=C/CN1CC(OC)C1` [Example 60, (2E)-N-{4-[4-({1-[2-(tert-Butylamino)-2-oxoethyl]-4-fluoro-1H-pyrazol-3-yl}oxy)-2-fluoroanilino]-7-methoxyquinazolin-6-yl}-4-(3-methoxyazetidin-1-yl)but-2-enamide], the GI50 came to 6030 nM with Ba/F3-Mock cells, 11.9 nM in assay [1], 497 nM in the assay with Ba/F3-EGFR WT cells and 10.7 nM in assay [2].

As to `COc1cc2ncnc(Nc3ccc(Oc4nc(CC(=O)NC(C)(C)C)cs4)cc3F)c2cc1NC(=O)/C=C/CN1CC[C@@H](OC)C1` [Example 61, (2E)-N-{4-[4-({4-[2-(tert-Butylamino)-2-oxoethyl]-1,3-thiazol-2-yl}oxy)-2-fluoroanilino]-7-methoxyquinazolin-6-yl}-4-[(3R)-3-methoxypyrrolidin-1-yl]but-2-enamide], the concentration for 50% growth inhibition (GI50) in the assay on Ba/F3-Mock cells is 3120 nM; in assay [1] it was 25.6 nM; in the assay on Ba/F3-EGFR WT cells, 731 nM; in assay [2] it was 88.1 nM.

For `COc1cc2ncnc(Nc3ccc(Oc4nc(-c5nnc(C6CC6)o5)cs4)cc3F)c2cc1NC(=O)/C=C/CN1CC[C@@H](F)C1` [Example 62, (2E)-N-[4-(4-{[4-(5-Cyclopropyl-1,3,4-oxadiazol-2-yl)-1,3-thiazol-2-yl]oxy}-2-fluoroanilino)-7-methoxyquinazolin-6-yl]-4-[(3R)-3-fluoropyrrolidin-1-yl]but-2-enamide], the GI50 was 1490 nM with Ba/F3-Mock cells, 43.9 nM in assay [1], 733 nM with Ba/F3-EGFR WT cells and 210 nM in assay [2].
